ChEMBL document CHEMBL1201862, “PubChem BioAssay data set” (2004)
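The compound was tested at five concentrations on cells cultured in 96-well plates, with a 48-hour exposure period. GI50 marks 50% less growth.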 Active and inactive are the calls of the source. Rule as the data show it: active = GI50 up to about 1.1 µM and inactive = higher.

Tests used:
Test in all cases: inhibition of tumour cell growth, NCI panel, 48 h
ACHN = tested on: ACHN
BT-549 = tested on: BT-549
CAKI-1 = tested on: CAKI-1
CCRF-CEM = tested on: CCRF-CEM
HCC 2998 = tested on: HCC 2998
KM12 = tested on: KM12
LOX IMVI = tested on: LOX IMVI
MCF7 = tested on: MCF7
MDA-MB-231 = tested on: MDA-MB-231
MOLT-4 = tested on: MOLT-4
NCI-H23 = tested on: NCI-H23
NCI-H460 = tested on: NCI-H460
OVCAR-3 = tested on: OVCAR-3
OVCAR-8 = tested on: OVCAR-8
RXF 393 = tested on: RXF 393
TK-10 = tested on: TK-10
U-251 = tested on: U-251
UO-31 = tested on: UO-31
OVCAR-4 = tested on: OVCAR-4
UACC-62 = tested on: UACC-62

Row | SMILES | GI50 (ACHN) | GI50 (BT-549) | GI50 (CAKI-1) | GI50 (CCRF-CEM) | GI50 (HCC 2998) | GI50 (KM12) | GI50 (LOX IMVI) | GI50 (MCF7) | GI50 (MDA-MB-231) | GI50 (MOLT-4) | GI50 (NCI-H23) | GI50 (NCI-H460) | GI50 (OVCAR-3) | GI50 (OVCAR-8) | GI50 (RXF 393) | GI50 (TK-10) | GI50 (U-251) | GI50 (UO-31) | GI50 (OVCAR-4) | GI50 (UACC-62)
1 | CCOP(=O)(COCCn1ncc(=O)[nH]c1=O)OCC | > 100 µM (inactive) | > 100 µM (inactive) | > 100 µM (inactive) | > 100 µM (inactive) | > 100 µM (inactive) | > 100 µM (inactive) | > 100 µM (inactive) | > 100 µM (inactive) | > 100 µM (inactive) | > 100 µM (inactive) | > 100 µM (inactive) | > 100 µM (inactive) | > 100 µM (inactive) | > 100 µM (inactive) | > 100 µM (inactive) | > 100 µM (inactive) | > 100 µM (inactive) | > 100 µM (inactive) | – | –
2 | Cc1nc2c(ccc3[nH]c4ccccc4c32)s1 | 35.1 µM (inactive) | 19.1 µM (inactive) | 47.5 µM (inactive) | 18.8 µM (inactive) | 15.3 µM (inactive) | 25.5 µM (inactive) | – | 26.7 µM (inactive) | 14.5 µM (inactive) | 12.6 µM (inactive) | 30.2 µM (inactive) | 20.6 µM (inactive) | 20.6 µM (inactive) | 30.1 µM (inactive) | 29.8 µM (inactive) | 29.5 µM (inactive) | 20.5 µM (inactive) | 26.2 µM (inactive) | 25.5 µM (inactive) | 18.4 µM (inactive)
3 | O=C(NNC(=S)Nc1cccc(Cl)c1)c1cc(-c2ccccc2)nc2ccccc12 | 16.3 µM (inactive) | 19.4 µM (inactive) | 19.3 µM (inactive) | 10.2 µM (inactive) | 12.6 µM (inactive) | 18.5 µM (inactive) | – | 10 µM (inactive) | 13.1 µM (inactive) | 28 µM (inactive) | 13.8 µM (inactive) | 18.6 µM (inactive) | 15.1 µM (inactive) | 20.7 µM (inactive) | 16.1 µM (inactive) | 15.4 µM (inactive) | 12.3 µM (inactive) | 15.1 µM (inactive) | 14.3 µM (inactive) | 13.4 µM (inactive)
4 | NS(=O)(=O)c1nnc(NS(=O)(=O)c2ccccc2[N+](=O)[O-])s1 | > 100 µM (inactive) | > 100 µM (inactive) | > 100 µM (inactive) | – | > 100 µM (inactive) | > 100 µM (inactive) | – | > 100 µM (inactive) | > 100 µM (inactive) | > 100 µM (inactive) | > 100 µM (inactive) | > 100 µM (inactive) | > 100 µM (inactive) | – | > 100 µM (inactive) | > 100 µM (inactive) | > 100 µM (inactive) | > 100 µM (inactive) | > 100 µM (inactive) | > 100 µM (inactive)
5 | O=C(O)c1ccc2c(c1)Cc1cc([N+](=O)[O-])ccc1-2 | > 100 µM (inactive) | > 100 µM (inactive) | 71.4 µM (inactive) | 21.6 µM (inactive) | > 100 µM (inactive) | > 100 µM (inactive) | > 100 µM (inactive) | > 100 µM (inactive) | > 100 µM (inactive) | > 100 µM (inactive) | > 100 µM (inactive) | > 100 µM (inactive) | > 100 µM (inactive) | 59.7 µM (inactive) | – | 61 µM (inactive) | > 100 µM (inactive) | 93.1 µM (inactive) | > 100 µM (inactive) | > 100 µM (inactive)
6 | CO[P@@]1(=O)O[C@@H](c2ccccc2)[C@H](O)[C@@]1(O)c1ccccc1 | > 100 µM (inactive) | > 100 µM (inactive) | > 100 µM (inactive) | > 100 µM (inactive) | – | > 100 µM (inactive) | > 100 µM (inactive) | > 100 µM (inactive) | > 100 µM (inactive) | 22.8 µM (inactive) | > 100 µM (inactive) | > 100 µM (inactive) | > 100 µM (inactive) | > 100 µM (inactive) | > 100 µM (inactive) | > 100 µM (inactive) | > 100 µM (inactive) | > 100 µM (inactive) | > 100 µM (inactive) | > 100 µM (inactive)
7 | CCc1n[nH]c(=O)n1NC(=O)c1ccccc1C(=O)O | > 100 µM (inactive) | > 100 µM (inactive) | – | > 100 µM (inactive) | > 100 µM (inactive) | > 100 µM (inactive) | > 100 µM (inactive) | > 100 µM (inactive) | > 100 µM (inactive) | > 100 µM (inactive) | > 100 µM (inactive) | – | > 100 µM (inactive) | > 100 µM (inactive) | > 100 µM (inactive) | > 100 µM (inactive) | > 100 µM (inactive) | > 100 µM (inactive) | > 100 µM (inactive) | > 100 µM (inactive)
8 | c1cc(-c2ncc(-c3ccc4c(c3)CCCO4)o2)ccn1 | 22.3 µM (inactive) | 13.2 µM (inactive) | 20 µM (inactive) | 4.83 µM (inactive) | – | – | 8.41 µM (inactive) | 12.8 µM (inactive) | 17.7 µM (inactive) | 3.06 µM (inactive) | 14.7 µM (inactive) | – | 11.4 µM (inactive) | 16.7 µM (inactive) | 8.83 µM (inactive) | 7.43 µM (inactive) | 11.2 µM (inactive) | 23.2 µM (inactive) | 18 µM (inactive) | 15.6 µM (inactive)
9 | Nc1ncc2c(n1)-c1ccccc1OC2NC1CC1 (stereo unspecified) | > 100 µM (inactive) | > 100 µM (inactive) | > 100 µM (inactive) | > 100 µM (inactive) | – | > 100 µM (inactive) | > 100 µM (inactive) | > 100 µM (inactive) | > 100 µM (inactive) | > 100 µM (inactive) | > 100 µM (inactive) | > 100 µM (inactive) | > 100 µM (inactive) | > 100 µM (inactive) | > 100 µM (inactive) | > 100 µM (inactive) | > 100 µM (inactive) | > 100 µM (inactive) | > 100 µM (inactive) | > 100 µM (inactive)
10 | COc1ccc2cc1Oc1ccc(cc1)CC1c3cc(OC)c(cc3CCN1C)Oc1c(OC)c(OC)cc3c1C(C2)N(C)CC3 (stereo unspecified) | 9.57 µM (inactive) | 10.8 µM (inactive) | 11.2 µM (inactive) | 17.7 µM (inactive) | 9.62 µM (inactive) | 12.7 µM (inactive) | 9.98 µM (inactive) | 14.6 µM (inactive) | 10 µM (inactive) | 10.4 µM (inactive) | 15.1 µM (inactive) | 10.2 µM (inactive) | – | 12.4 µM (inactive) | – | 10.8 µM (inactive) | 10.2 µM (inactive) | 9.42 µM (inactive) | 10.6 µM (inactive) | 12.8 µM (inactive)
11 | O=C(Nc1ccc(Cl)cc1)C(=O)C1=C(O)c2ccccc2OC1 | > 100 µM (inactive) | > 100 µM (inactive) | > 100 µM (inactive) | > 100 µM (inactive) | > 100 µM (inactive) | 80.5 µM (inactive) | > 100 µM (inactive) | > 100 µM (inactive) | > 100 µM (inactive) | > 100 µM (inactive) | > 100 µM (inactive) | > 100 µM (inactive) | > 100 µM (inactive) | > 100 µM (inactive) | – | > 100 µM (inactive) | > 100 µM (inactive) | > 100 µM (inactive) | > 100 µM (inactive) | > 100 µM (inactive)
12 | O=C(c1ccccc1)N1CCN(C(=S)N(C(=O)c2ccccc2)c2ccccc2)C1=S | 2.79 µM (inactive) | 3.85 µM (inactive) | 2.47 µM (inactive) | 2.56 µM (inactive) | 6.5 µM (inactive) | 5.71 µM (inactive) | 1.9 µM (inactive) | 3.13 µM (inactive) | 10.3 µM (inactive) | 1.89 µM (inactive) | 3.05 µM (inactive) | 17.5 µM (inactive) | 4.21 µM (inactive) | 3.13 µM (inactive) | – | 5.83 µM (inactive) | 6.79 µM (inactive) | 2.56 µM (inactive) | 4.6 µM (inactive) | 3.76 µM (inactive)
13 | O=C(OC1C#CCSCC#C/C=C\1)c1cnc2ccccc2n1 (stereo unspecified) | > 100 µM (inactive) | > 100 µM (inactive) | – | 53.6 µM (inactive) | > 100 µM (inactive) | – | > 100 µM (inactive) | > 100 µM (inactive) | > 100 µM (inactive) | – | > 100 µM (inactive) | 14.1 µM (inactive) | > 100 µM (inactive) | 0.409 µM (active) | 79.8 µM (inactive) | > 100 µM (inactive) | > 100 µM (inactive) | > 100 µM (inactive) | > 100 µM (inactive) | > 100 µM (inactive)
14 | S=C(S)N1CCN(c2ccc(Cl)c(Cl)c2)CC1 | 37.2 µM (inactive) | 51.3 µM (inactive) | 27.5 µM (inactive) | 13 µM (inactive) | 20.8 µM (inactive) | 16.3 µM (inactive) | 16.6 µM (inactive) | 25.8 µM (inactive) | 21.3 µM (inactive) | – | – | – | 21.3 µM (inactive) | 46.9 µM (inactive) | 56.9 µM (inactive) | 58.6 µM (inactive) | 26.3 µM (inactive) | – | – | –
15 | CCN(CC)COC(=S)S | > 100 µM (inactive) | > 94.6 µM (inactive) | > 67 µM (inactive) | 0.0162 µM (active) | > 49.9 µM (inactive) | > 76.2 µM (inactive) | 41.8 µM (inactive) | > 100 µM (inactive) | 35.4 µM (inactive) | 22.3 µM (inactive) | > 100 µM (inactive) | 30.1 µM (inactive) | 0.0516 µM (active) | 42.4 µM (inactive) | – | > 54 µM (inactive) | 30.3 µM (inactive) | 62.5 µM (inactive) | 48.8 µM (inactive) | > 83 µM (inactive)
